Data from patent US8470534B2, “Methods of predicting resistance or sensitivity to therapies for cancer” (priority 2006, dated 2013).

System: MCF7, T47D, and Zr-75-1 cells
Experiment: BrdU incorporation under hormone deprivation / antiestrogen (CDT, CDT/Tam, CDT/ICI)
Assay type: cell-based, human
Experimental: To understand the impact of RB deficiency on the response to hormone deprivation therapy, cells are cultured in CDT, CDT/Tam, or in the presence of pure antiestrogen, ICI182780 (CDT/ICI). Following treatment with these modalities, cells are labeled with BrdU to determine the influence of each agent on cell-cycle progression and the corresponding influence of RB knockdown on this response (FIG. 4B). These experiments are recapitulated in the polyclonal populations of T47D and Zr-75-1 donor and siRb88 cells (FIG. 4C). […] To elucidate the long-term growth effects of these therapies, cell proliferation assays are performed over 9 days. RB-proficient and -deficient MCF7 cells are seeded at equal densities and cultured in CDT/Tam (FIG. 4D). […] Similar results are evident in the same experiments with both T47D and Zr-75-1 RB-proficient and -deficient polyclonal pools (FIG. 4E).
RB target gene upregulation is a prognostic indicator in human breast cancers. RB performs a myriad of functions, the most well understood being repression of the E2F family of transcription factors. To determine the specific influence of the E2F axis on bypassing therapy, an activator E2F is overexpressed in wild-type MCF7 cells. Specifically, cells are infected either with an adenovirus encoding E2F3 (ad-E2F3) or a control virus (Ad-LacZ) and are harvested 3 days after infection for immunoblot analysis of levels of known RB-E2F targets (FIG. 5A). […] As expected, no changes are detected in RB levels, and CDK4 serves as a loading control. In order to assess the response to therapeutic intervention, 3 days after infection Ad-E2F3- or AdLacZ-infected MCF7 cells are separated into 2 major treatment groups: hormone therapy and DNA damage therapy. The estrogen ablation group is then cultured in the absence of estrogen and in the presence of Tam and ICI as described above. Alternatively, the cells in the DNA damage therapy group are treated with 16 μM CDDP for 18 hours prior to washing or treatment with 5 Gy IR. Cells from both therapy groups are BrdU labeled, and the replicative fraction of treated cells is determined with respect to untreated control cells (FIG. 5B).
To study the effect of estrogen depletion, cells are cultured for 72 hours in phenol red-free DMEM supplemented with 10% CDT serum with addition of 10^−9 M 4-HydroxyTam or 10^−6 M ICI where indicated. Cell growth assays are performed by trypsinizing cells and counting by trypan blue exclusion every 3 days.
Cells treated with IR are exposed to ^137Cs (dose rate: 0.67 Gy/min) at room temperature in tissue culture media. Culture with clinical grade CDDP for 18 hours is performed for all CDDP treatments. For all proliferation studies, cells are labeled with BrdU for 10 hours or 5 hours for LXSN/LXSN-p53dd infected cells, and BrdU immunofluorescence is performed as previously described. All BrdU results are expressed as a percentage of untreated control cells set to 100%, unless otherwise noted.

CC/C(=C(\c1ccccc1)c1ccc(OCCN(C)C)cc1)c1ccccc1 [Tam, tamoxifen]
cell-cycle arrest (replicative fraction, BrdU) (Ad-E2F3-infected versus control infected MCF7 cells, absence of estrogen plus agent): significantly reduced levels of cell-cycle arrest
cell-cycle inhibition by the agent (BrdU labeling) (RB-depleted cells (MCF7 siRb28, T47D and Zr-75-1 siRb88), CDT serum plus agent, 3 days): significantly reduced
cell-cycle progression (BrdU labeling) (cells harboring functional RB (MCF7, T47D, Zr-75-1 donor), CDT serum plus agent, 3 days, 10^−9 M 4-HydroxyTam or 10^−6 M ICI): elicit cell-cycle inhibition
